According to patent US9289488B2, “Vaccine engineering” (AC Immune SA, priority 2010, dated 2016):
Where two headings read alike, the source gives them in different places. K(Palm) = lysine with palmitoylated side chain (X = Palmitoyl); K(Ac) = lysine with acetylated side chain (X = Acetyl)

Experiments:
[1] = target: T1, β-sheet aggregates of liposomal Palm1-15 (ACI-24) (Homo sapiens, UniProt P05067); assay: Disaggregation assay using ThT fluorescence on ACI-24; type: biochemical; details: for decrease of ThT fluorescence upon addition of metal: near stoichiometric metal:peptide (20 μM : 15 μM), 2 h incubation; for ThT fluorescence after incubation with β-sheet breaker small molecule: ACI-24, 2 h incubation
T1 construct: purchased Bachem (Switzerland); host or cells: chemical synthesis
Description: (§1) • CD spectra were acquired on a Jasco-815 spectropolarimeter (Japan) with a 0.1 cm path length quartz cuvette at 23° C. Measurements were made with a 1.0 nm bandwidth and 0.5 nm resolution. A scan speed of 50 nm/min was employed with response time of 1 s. Solvent control spectra (4 scans) were averaged and subtracted from the average of 8 scans of each sample spectra. All spectra ([θ]obs, degrees) were smoothed after being converted to mean residue molar ellipticity ([θ], degrees cm^2 dmol^−1) with the equation [θ]=[θ]obs×(MRW/10lc), where MRW is the mean residue molecular weight (MW/number of residues), l is the optical path length (cm) and c is the concentration (g/cm^3). […] Spectra of the corresponding empty liposomes lacking peptide were subtracted. A2 ThT Fluorescence. • Fluorescence emission spectra were measured at 25° C. on a Tecan M200 spectrofluorimeter with an excitation of 440 nm. […] Data were fitted using non-linear regression analysis (SigmaPlot v10.0) assuming single-site binding saturation in order to calculate apparent Kd and maximal binding Bmax. A3 Disaggregation Assay Using ThT Fluorescence. • ZnCl2, FeCl3 or CuCl2 (2 μL, 1 mM in H2O) were incubated with liposomes diluted 4-fold in PBS (48 μL) for 2 h at 22° C. PBS (48 μL) with or without DPTA (0.4 mM) was added accordingly after 5 min. ThT (2 μL, 2.4 mM in H2O) was then added and fluorescence measured after a further 5 min. For disaggregation with small molecules, Rosmarinic acid, Tannic acid or Methylene Blue (2 μL, 2.7 mM in PBS) were added to 86 μL of liposomes diluted 8-fold with PBS. After 2 h incubation at RT, ThT (2 μL, 2.4 mM in H2O) was added and after 10 min. fluorescence was measured at 490 nm (Ex. 440 nm). A4 MAS-NMR Spectroscopy. • Experiments were conducted using a 3.2 mm triple-resonance (^1H, ^13C, ^15N) MAS probe (Bruker Biospin, Germany) at a static magnetic field of 16.4 T corresponding to 700 MHz proton resonance frequency. […] Experiments were recorded using 10 kHz MAS and at effective sample temperature of about 4° C. After a cross polarization (CP) step employing a contact time of 600 μs, the SPC5 pulse sequence was used for generation of DQ coherence, with a ^13C radio frequency (r.f.) field strength of 50 kHz and DQ excitation and reconversion time totaling 2.28 ms. Acquisition involved in each case 110K repetitions. An ^1H field strength of 83.3 kHz was used during excitation and SPINAL64 proton decoupling. A5 SPR Analysis of Peptide-Liposome Interactions. • Experiments were performed at 25° C. using 0.2 μm filtered and degassed PBS as running buffer. An L1 sensor chip (GE Healthcare, Sweden) was docked into a BIAcore 1000 instrument and the chip surface conditioned by injection of 50 μL of Zwittergent at 30 μL/min. Liposomes lacking peptide (‘empty’ liposomes) were then immobilized onto the sensor chip following 2 successive injections of 50 μL at 2 μL/min. Finally 50 μL of 50 mM NaOH was injected over the surface at 30 μL/min in order to render the surface more unilamellar. […] 50 μL of acetylated peptides solubilized in PBS were then injected over the surface over a range of concentrations at a flow rate of 30 μL/min, followed by dissociation with PBS for 300 s. After analysis of the interaction of different peptides, a fresh lipid bilayer was immobilized. A6 Dynamic Light Scattering. • Liposome samples were diluted 100-fold with PBS. Analysis was performed using a Zetasizer Nano (Malvern, USA) at 25° C. Data was analyzed with DTS 5.0 (Malvern) software by signal intensity in order to calculate the average liposome diameter and polydispersity index (PDI). A7 Cryo-EM. • Liposome sample was diluted 6-fold with PBS and then 3 μL was applied on glow discharged R 2/4 holey carbon grids (Quantifoil®), blotted off, and plunged frozen into liquid ethane under temperature and humidity controlled conditions using the Vitribot™ (FEI, The Netherlands).

[2] = reported value; read-out: apparent Kd for the interaction of ThT with Aβ1-40; cited from earlier work
[3] = CD spectroscopy of peptide secondary structure; type: physicochemical; details: PBS; palmitoylated peptides in liposomes, acetylated peptides alone
Description: as §1

[4] = ThT fluorescence binding to liposomal peptide constructs; details: for Kd: ThT binding, single site fit, read-out: App. Kd; for Kd / Bmax: liposomes DMPC/DMPG/cholesterol/MPLA 9:1:7:0.06, diluted 8-fold; for Bmax: ThT fluorescence at saturation; for Bmax (% rel. ACI-24): relative to ACI-24 (Palm1-15); for ThT fluorescence emission (in words): emission at 485 nm, excitation 440 nm, PBS
Description: as §1

Kd [4] [µM] | Bmax [4] | Bmax (% rel. ACI-24) [4] [%] | Compound | Secondary structure by CD spectroscopy [3] | also measured
12.1 | 12567 | 35 | H-K(X)-K(X)-DAKFRHKSGYEVHHQ-K(X)-K(X)-OH ({K(Palm)-K(Palm)}-DAKFRHKSGYEVHHQ-{K(Palm)-K(Palm)-OH}) [Palm1-15(E3K, D7K), X = Palmitoyl] | – | –
10.1 | 24981 | 69 | H-K(X)-K(X)-DAKFRHKSGYKVHHQ-K(X)-K(X)-OH ({K(Palm)-K(Palm)}-DAKFRHKSGYKVHHQ-{K(Palm)-K(Palm)-OH}) [Palm1-15(E3K, D7K, E11K), X = Palmitoyl] | – | –
7.9 | 13844 | 38 | H-K(X)-K(X)-GHEAYHSVERFDDQH-K(X)-K(X)-OH [scPalm15] ({K(Palm)-K(Palm)}-GHEAYHSVERFDDQH-{K(Palm)-K(Palm)-OH}) [X = Palmitoyl] | β-sheet conformation | –
7.8 | 11023 | 30 | H-K(X)-K(X)-QHHVEYGSDHRFEAD-K(X)-K(X)-OH [Palm15-1] ({K(Palm)-K(Palm)}-QHHVEYGSDHRFEAD-{K(Palm)-K(Palm)-OH}) [X = Palmitoyl] | β-sheet conformation | –

Continued, compound first:

Compound | Kd [4] [µM] | Bmax [4] | Bmax (% rel. ACI-24) [4] [%] | Secondary structure by CD spectroscopy [3] | also measured
[Cl][Cu][Cl] [Cu(II), CuCl2] | – | – | – | – | EC50 ([1]; ACI-24, ThT fluorescence, read-out: EC50 value for Cu(II) disaggregation): ~3 µM; decrease of ThT fluorescence upon addition of metal [1]: ~75%
[Cl][Fe]([Cl])[Cl] [Fe(III), FeCl3] | – | – | – | – | decrease of ThT fluorescence upon addition of metal [1]: none
CN(C)c1ccc2nc3ccc(=[N+](C)C)cc-3sc2c1 [Methylene Blue] | – | – | – | – | ThT fluorescence after incubation with β-sheet breaker small molecule [1]: most efficient disaggregation
O=C(/C=C/c1ccc(O)c(O)c1)O[C@H](Cc1ccc(O)c(O)c1)C(=O)O [Rosmarinic acid] | – | – | – | – | ThT fluorescence after incubation with β-sheet breaker small molecule [1]: decrease of fluorescence
O=C(OC[C@H]1O[C@@H](OC(=O)c2cc(O)c(O)c(OC(=O)c3cc(O)c(O)c(O)c3)c2)[C@H](OC(=O)c2cc(O)c(O)c(OC(=O)c3cc(O)c(O)c(O)c3)c2)[C@@H](OC(=O)c2cc(O)c(O)c(OC(=O)c3cc(O)c(O)c(O)c3)c2)[C@@H]1OC(=O)c1cc(O)c(O)c(OC(=O)c2cc(O)c(O)c(O)c2)c1)c1cc(O)c(O)c(OC(=O)c2cc(O)c(O)c(O)c2)c1 [Tannic acid] | – | – | – | – | ThT fluorescence after incubation with β-sheet breaker small molecule [1]: decrease of fluorescence
[Cl-].[Cl-].[Zn+2] [Zn(II), ZnCl2] | – | – | – | – | decrease of ThT fluorescence upon addition of metal [1]: ~12%
Aβ1-40: β-amyloid peptide Aβ1-40 | – | – | – | – | Kd [2]: 11 µM
H-K(X)-K(X)-DAAFRHKSGYEVHHQ-K(X)-K(X)-OH ({K(Ac)-K(Ac)}-DAAFRHKSGYEVHHQ-{K(Ac)-K(Ac)-OH}) [Acetyl1-15(E3A, D7K), X = Acetyl] | – | – | – | unstructured random coil conformations | –
H-K(X)-K(X)-DAAFRHKSGYEVHHQ-K(X)-K(X)-OH ({K(Palm)-K(Palm)}-DAAFRHKSGYEVHHQ-{K(Palm)-K(Palm)-OH}) [Palm1-15(E3A, D7K), X = Palmitoyl] | 14.7 | 24854 | 68 | – | –
H-K(X)-K(X)-DAEFR-K(X)-K(X)-OH [Palm1-5, X = Palmitoyl] | 0.7 | 12653 | 35 | mixed proportion of extended β-sheet and random coil conformations | ThT fluorescence emission (in words) [4]: lower ThT fluorescence intensity
H-K(X)-K(X)-DAEFRHKSGYEVHHQ-K(X)-K(X)-OH ({K(Ac)-K(Ac)}-DAEFRHKSGYEVHHQ-{K(Ac)-K(Ac)-OH}) [Acetyl1-15(D7K), X = Acetyl] | – | – | – | unstructured random coil conformations | –
H-K(X)-K(X)-DAEFRHKSGYEVHHQ-K(X)-K(X)-OH ({K(Palm)-K(Palm)}-DAEFRHKSGYEVHHQ-{K(Palm)-K(Palm)-OH}) [Palm1-15(D7K), X = Palmitoyl] | 8.8 | 21197 | 58 | – | –
H-K(X)-K(X)-DAKFRHKSGYEVHHQ-K(X)-K(X)-OH ({K(Ac)-K(Ac)}-DAKFRHKSGYEVHHQ-{K(Ac)-K(Ac)-OH}) [Acetyl1-15(E3K, D7K), X = Acetyl] | – | – | – | unstructured random coil conformations | –
H-K(X)-K(X)-DAKFRHKSGYKVHHQ-K(X)-K(X)-OH ({K(Ac)-K(Ac)}-DAKFRHKSGYKVHHQ-{K(Ac)-K(Ac)-OH}) [Acetyl1-15(E3K, D7K, E11K), X = Acetyl] | – | – | – | unstructured random coil conformations | –
H-K(X)-K(X)-GHEAYHSVERFDDQH-K(X)-K(X)-OH [scAcetyl15] ({K(Ac)-K(Ac)}-GHEAYHSVERFDDQH-{K(Ac)-K(Ac)-OH}) [X = Acetyl] | – | – | – | unstructured random coil conformations | ThT fluorescence emission (in words) [4]: no fluorescence
H-K(X)-K(X)-QHHVEYGSDHRFEAD-K(X)-K(X)-OH [Acetyl15-1] ({K(Ac)-K(Ac)}-QHHVEYGSDHRFEAD-{K(Ac)-K(Ac)-OH}) [X = Acetyl] | – | – | – | unstructured random coil conformations | ThT fluorescence emission (in words) [4]: no fluorescence
